Measured values: US20220281879A1, “SALT AND CRYSTAL FORMS OF AN ACTIVIN RECEPTOR-LIKE KINASE INHIBITOR” (Blueprint Medicines Corporation, priority 2019, published 2022)
Converted amounts (≈) assume the structure as drawn. “Also recorded” adds a separate entry of the source. Where a name gives a salt, the structure may show the parent alone. Read-outs that look alike come from different tables or passages of the source. Values belong to the compound of their own block, whether it stands above or below them.

Assays:
[1] = Drying and humidity exposure (>90% RH) with XRPD; conditions: for physical stability on humidity exposure: >90% RH, overnight / one day; for physical stability on humidity exposure / stability on drying and humidity exposure: XRPD; for stability on drying and humidity exposure: dried under vacuum at 50° C., then >90% RH one day; for physical stability in humid environment, prolonged: >90% relative humidity, days to one week
Method: XRPD analysis was done in three stages. XRPD of the wet cake was done for all samples (where solids were observed). Unique solids were then left on XRPD plates and dried under vacuum at 50° C. for at least 3 hours. XRPD of unique dry solids was then done. Solids were then exposed to >90% relative humidity for one day and XRPD on resulted solids was done. The humid environment was generated by placing a beaker of saturated potassium sulfate in water in a sealed container. All XRPD patterns were compared to counter ion XRPD patterns and known free molecule patterns.
A crystalline form of the free base was exposed to high humidity (>90% RH) overnight. The humid environment was generated by placing a beaker of saturated potassium sulfate in water in a sealed container.

[2] = Humidity exposure at 75% relative humidity / 40° C. for one week with XRPD; conditions: 75% RH / 40° C.
Method: The Sesqui-Succinate obtained in Example 2.1 was exposed to 75% relative humidity at 40° C. for one week. The samples were placed in a 4 mL vial covered with a Kimwipe® and then placed in a 20 mL vial containing 3-4 mL saturated NaCl in water. The 20 mL vials were sealed and held at 40° C. Solids were collected for XRPD analysis after one week.
HCl salt Monohydrate Form A was placed at 40° C./75% relative humidity for one week. About 10 mg sample was placed in a 4 mL vial covered with a Kimwipe®. The vial was then placed inside a 20 mL sealed vial containing saturated aqueous sodium chloride.

[3] = Solubility at 37° C. in water and simulated fluids (FaSSIF, FaSSGF); format: physicochemical; conditions: for Solubility at 37° C. FaSSGF: fasted state simulated gastric fluid; for Solubility at 37° C. FaSSIF: fasted state simulated intestinal fluid
Description: Crystalline salts were characterized and evaluated for viability based on melting point, crystallinity, stability on drying and humidity exposure, water solubility, polymorphism, and acceptability of counter-ion.

[4] = Variable humidity and variable temperature XRPD (VH-XRPD, VT-XRPD); format: physicochemical; conditions: for variable humidity XRPD: change of crystalline structure: 0-90% RH; for variable temperature XRPD: change of crystalline structure: ambient to 160° C.
Method: Powder X-ray diffraction was done using a Rigaku MiniFlex 600 or a Bruker D8 Advance equipped with Lynxeye detector in reflection mode (i.e. Bragg-Brentano geometry). Samples were prepared on Si zero-return wafers. A typical scan is from 2θ of 4 to 30 degrees, with step size 0.05 degrees over five minutes with 40 kV and 15 mA. A high-resolution scan is from 2θ of 4 to 40 degrees, with step size 0.05 degrees over thirty minutes with 40 kV and 15 mA. Typical parameters for XRPD are listed below.

[5] = Dynamic Vapor Sorption (DVS); format: physicochemical; conditions: for XRPD after DVS measurement: after 2-95% RH cycle; for DVS Mass Change: between 2 and 95% relative humidity at 25° C.
Method: Dynamic Vapor Sorption (DVS) was done using a DVS Intrinsic 1. The sample was loaded into a sample pan and suspended from a microbalance. A typical sample mass for DVS measurement is 25 mg. Nitrogen gas bubbled through distilled water provides the desired relative humidity. The sample was held for a minimum of 5 min at each level and only progressed to the next humidity level if there was <0.002% change in weight between measurements (interval: 60 seconds) or […] had elapsed. A typical measurement comprises the steps: • 1—Equilibrate at 50% RH • 2—50% to 2%. (50%, 40%, 30%, 20%, 10% and 2%) • a. Hold minimum of 5 mins and maximum of 60 minutes at each humidity. • The pass criteria is less than 0.002% change • 3—2% to 95% (2%, 10%, 20%, 30%, 40%, 50%, 60%, 70%, 80%, 90%, 95%) • a. Hold minimum of 5 mins and maximum of 60 minutes at each humidity.
The pass criteria is less than 0.002% change • 4—95% to 2% (95%, 80%, 70%, 60%, 50%, 40%, 30%, 20%, 10%, 2%) • a. Hold minimum of 5 mins and maximum of 60 minutes at each humidity. • The pass criteria is less than 0.002% change • 5—2% to 50% (2%, 10%, 20%, 30%, 40%, 50%) • a. Hold minimum of 5 mins and maximum of 60 minutes at each humidity. • The pass criteria is less than 0.002% change

[6] = Solubility in organic solvent systems at room temperature; format: physicochemical; conditions: organic solvent or mixture, most organic solvents tested
[7] = Exposure to dry conditions and re-humidification with XRPD; format: physicochemical
Method: The 1:1 Compound (I) Crystalline HCl salt Monohydrate obtained from Example 3.1 was exposed to various drying conditions and then analyzed by XRPD.
The conditions were: (1) room temperature in vial containing P2O5 at 50° C., (2) 60° C. under vacuum, and (3) heating to 140° C. in DSC.
The HCl salt exposed to P2O5 at 50° C. was sampled for XRPD at the 7 day mark.

[8] = listed as Compound (I) Sesqui-Succinate Form A
[9] = listed as Compound (I) Sesqui-Succinate salt Form A
[10] = listed as free base of Compound (I)
[11] = listed as HCl salt Monohydrate Form A

physical stability on humidity exposure ([1]; listed as salicylic acid): did not deliquesce
Compound: CCOC1(c2ccc(-c3cc4c(N5CCN(C(=O)O[C@@H]6CCOC6)CC5)ccnn4c3)nc2)CCN(C(C)C)CC1 [Salicylate]

physical stability after one week humidity exposure [2, 8]: physically stable by XRPD
solubility in water and in simulated gastric fluids (in words) [3]: good solubility
Solubility at 37° C. FaSSGF [3]: >25.9 mg/mL
Solubility at 37° C. FaSSIF [3]: >22.2 mg/mL
solubility in water and simulated fluids (all fluids) ([3]; in all fluids): > 22 mg/mL
Solubility at 37° C. Water ([3]; water): >34.0 mg/mL
solubility ([3]; water, FaSSIF and FaSSGF (all fluids), thermodynamic from solid, in all fluids): > 22 mg/mL
variable humidity XRPD: change of crystalline structure [4, 9]: no change in the crystalline structure
variable temperature XRPD: change of crystalline structure [4, 9]: no change in the crystalline structure
DVS mass change occurring above 80% relative humidity ([5]; 25° C., above 80% RH): 0.34-0.35 wt. %
XRPD after DVS measurement [5, 8]: remained as Form-A
DVS Mass Change [5]: 0.59-0.60 wt. %
DVS Mass Change [5, 8]: 0.59-0.60 wt. %
hygroscopicity (in words) ([5]; listed as 1.5:1 succinic acid salt): non-hygroscopic
physical stability on humidity exposure ([1]; listed as succinic acid): did not deliquesce
stability on drying and humidity exposure [1]: stable on drying and humidity exposure
Compound: CCOC1(c2ccc(-c3cc4c(N5CCN(C(=O)O[C@@H]6CCOC6)CC5)ccnn4c3)nc2)CCN(C(C)C)CC1 [Succinate Form A]
hygroscopicity (in words) [5]: less hygroscopic than the mono-HCl salt and freebase

physical stability after one week humidity exposure [2]: crystalline Form A
Compound: CCOC1(c2ccc(-c3cc4c(N5CCN(C(=O)O[C@@H]6CCOC6)CC5)ccnn4c3)nc2)CCN(C(C)C)CC1 [Amorphous solid (Compound (I) Sesqui-Succinate)]

physical stability on humidity exposure [1]: deliquesced
physical stability on humidity exposure ([1]; listed as besylate): deliquescence
Compound: CCOC1(c2ccc(-c3cc4c(N5CCN(C(=O)O[C@@H]6CCOC6)CC5)ccnn4c3)nc2)CCN(C(C)C)CC1 [Besylate]

solubility in water and in simulated gastric fluids (in words) [3]: good solubility
Compound: CCOC1(c2ccc(-c3cc4c(N5CCN(C(=O)O[C@@H]6CCOC6)CC5)ccnn4c3)nc2)CCN(C(C)C)CC1 [fumarate]

solubility [6]: > 200 mg/mL
Solubility at 37° C. FaSSGF ([3]; listed as Freebase): 7.29 mg/mL (≈ 13 mM)
Solubility at 37° C. FaSSGF ([3]; listed as freebase): ~17 mg/mL (≈ 30.2 mM)
Solubility at 37° C. FaSSIF ([3]; listed as Freebase): 17.9 mg/mL (≈ 31.8 mM)
Solubility at 37° C. FaSSIF ([3]; listed as freebase): ~7 mg/mL (≈ 12.4 mM)
Solubility at 37° C. Water ([3]; water, listed as freebase): 0.08 mg/mL (≈ 0.142 mM)
DVS mass change occurring above 70% relative humidity ([5]; 25° C., above 70% RH): 0.46-0.53 wt. %
DVS Mass Change ([5]; listed as Freebase): 0.88-0.92 wt. %
DVS Mass Change [5, 10]: 0.88-0.92 wt. %
physical stability on humidity exposure ([1]; listed as free base): lost some crystallinity
physical stability in humid environment, prolonged ([1]; listed as free base): deliquesced
physical stability in humid environment, prolonged [1, 10]: physically unstable
physical stability in humid environment, prolonged ([1]; listed as freebase): turned into a sticky gum
behaviour on exposure to water [1, 10]: tends to gum
behaviour on exposure to water ([1]; listed as freebase): gums in water
Compound: CCOC1(c2ccc(-c3cc4c(N5CCN(C(=O)O[C@@H]6CCOC6)CC5)ccnn4c3)nc2)CCN(C(C)C)CC1 [Compound (I)]

physical stability on humidity exposure ([1]; listed as maleic acid): deliquesced
Compound: CCOC1(c2ccc(-c3cc4c(N5CCN(C(=O)O[C@@H]6CCOC6)CC5)ccnn4c3)nc2)CCN(C(C)C)CC1 [maleate]
physical stability on humidity exposure [1]: deliquescence; also recorded: deliquesced

water solubility (in words) ([3]; salt screening evaluation): poor water solubility
physical stability on humidity exposure ([1]; listed as benzoic acid): did not deliquesce
Compound: CCOC1(c2ccc(-c3cc4c(N5CCN(C(=O)O[C@@H]6CCOC6)CC5)ccnn4c3)nc2)CCN(C(C)C)CC1 [Benzoate]

physical stability on humidity exposure [1]: partially converted to Form A
Compound: CCOC1(c2ccc(-c3cc4c(N5CCN(C(=O)O[C@@H]6CCOC6)CC5)ccnn4c3)nc2)CCN(C(C)C)CC1 [Form I]

physical stability after one week humidity exposure [2]: converted to Form A (monohydrate)
form conversion on exposure to ambient conditions ([7]; bench, 22-23° C., 28-35% RH, 2.25 hours): converted to Form A
physical stability on humidity exposure [1]: converted to Form A (monohydrate)
Compound: CCOC1(c2ccc(-c3cc4c(N5CCN(C(=O)O[C@@H]6CCOC6)CC5)ccnn4c3)nc2)CCN(C(C)C)CC1 [Form D]

physical stability on humidity exposure [1]: deliquesced
physical stability on humidity exposure ([1]; listed as 2:1 HCl): deliquescence
Compound: CCOC1(c2ccc(-c3cc4c(N5CCN(C(=O)O[C@@H]6CCOC6)CC5)ccnn4c3)nc2)CCN(C(C)C)CC1 [bis-HCl]

physical stability after one week humidity exposure [2, 11]: minor peak shifts
solubility in water and in simulated gastric fluids (in words) [3]: good solubility
Solubility at 37° C. FaSSGF [3]: 6.96 mg/mL
Solubility at 37° C. FaSSGF ([3]; listed as mono-HCl salt): > 30 mg/mL
Solubility at 37° C. FaSSIF [3]: 30.9 mg/mL
Solubility at 37° C. FaSSIF ([3]; listed as mono-HCl salt): ~7 mg/mL
Solubility at 37° C. Water ([3]; water): 33.4 mg/mL
Solubility at 37° C. Water ([3]; water, listed as mono-HCl salt): > 30 mg/mL
XRPD after exposure to drying conditions ([7]; P2O5 at 50° C., 60° C. under vacuum, heating to 140° C. in DSC): a new XRPD pattern was observed
variable humidity XRPD: change of crystalline structure [4, 11]: small shift
DVS mass change occurring below 20% relative humidity ([5]; 25° C., below 20% RH): 0.99-1.11 wt. %
XRPD after DVS measurement [5, 11]: extra peaks were observed
DVS Mass Change [5]: 1.30-1.43 wt. %
DVS Mass Change [5, 11]: 1.30-1.43 wt. %
hygroscopicity (in words) ([5]; listed as 1:1 hydrochloric acid salt): non-hygroscopic
physical stability on humidity exposure ([1]; listed as HCl (1 eq.)): did not deliquesce
Compound: CCOC1(c2ccc(-c3cc4c(N5CCN(C(=O)O[C@@H]6CCOC6)CC5)ccnn4c3)nc2)CCN(C(C)C)CC1 [Mono-HCl Form A]
variable temperature XRPD: change of crystalline structure [4, 11]: does not appear to collapse and/or re-arrange

stability on drying and humidity exposure [1]: stable on drying and humidity exposure
Compound: CCOC1(c2ccc(-c3cc4c(N5CCN(C(=O)O[C@@H]6CCOC6)CC5)ccnn4c3)nc2)CCN(C(C)C)CC1 [fumarate Form B]
